We go through five molecules from patent US4469686A, “Substituted phosphinic acids” (priority 1980, dated 1984).

Each structure is given as a SMILES string.

Data set [1] in a line: Test for cupriuretic activity. Type of data set: in vivo. The note with it: at 1 mM/kg. From the text: (B) Test for cupriuretic activity:
This test is relevant to Wilson's disease. The method followed is the method of K. GIBBS and J. M. WALSHE (Clinical Science and Molecular Medicine, 1977, 53, 317-20).

Data set [2] can be described thus: Test for catalytic dismutation of superoxide. Type of data set: biochemical. The note with it: test compound: copper glycine ratio of 4:1; read-out: Catalysis of superoxide dismutation, I50. From the text: (A) Test for catalytic dismutation of superoxide:
This test is relevant to degenerative joint disease and inflammation. The method followed is the method of M. YOUNES and U. WESER [Biochem.Biophys.Res.Commun. 1977, 78 (4) 1247-53] using a test compound: copper glycine ratio of 4:1.

The subject of another data set is mice. As to the kind of experiment: Acute toxicity studies in mice. Type of data set: in vivo. The note with it: i.p. How it is done: Acute toxicity studies in mice have shown that the minimum single dose to cause death is >2400 mg/kg i.p. for compound B and ≤400 mg/kg i.p. for DL-penicillamine.

Turning to `CC1(C)NC([PH](=O)O)C(C)(C)S1` (racemic) [Compound D, DL-(2,2,5,5-Tetramethyl-4-thiazolidinyl)phosphinic acid], the “Cupriuretic activity, % Increase” value in data set [1] was 308%.

Take `CC(C)(S)C(N)P(=O)(O)O` (racemic) [Compound A, DL-(1-Amino-2-mercapto-2-methylpropyl)phosphonic acid]: the “Cupriuretic activity, % Increase” value in data set [1] came to 139%. Further, the IC50 in data set [2] was 1200 nM.

As for `CC(C)(S)C(N)[PH](=O)O` (racemic) [Compound B, DL-(1-Amino-2-mercapto-2-methylpropyl)phosphinic acid], in the data set on mice, the “minimum single dose to cause death” value is reported as over 2400 mg/kg. In addition, the “Cupriuretic activity, % Increase” value in data set [1] stood at 397%. Further, the IC50 in data set [2] is 1200 nM.

`CC1(C)NC(P(=O)(O)O)C(C)(C)S1` (racemic) [Compound C, DL-2,2,5,5-Tetramethyl-4-thiazolidinyl)phosphonic acid]: the “Cupriuretic activity, % Increase” value in data set [1] amounted to 122%.

Turning to `CC(C)(S)C(N)C(=O)O` (racemic) [DL-penicillamine, reference compound], the “minimum single dose to cause death” value in the data set with mice is recorded as at most 400 mg/kg.
